Values quoted from earlier work in PubChem BioAssay AID1259409 (Chemical Carcinogenesis Research Information System (CCRIS), 2018).

System: rodent chemically induced tumor inhibition, incidence and multiplicity
Experiment: CCRIS tumor inhibitor studies
Settings: Dose [Inhibitor]: 0

| Compound | tumour outcome (control, treated, inhibition, significance) (Carcinogen: N-NITROSOBIS(2-OXOPROPYL)AMINE [60599-38-4], 3 UG/KG/D FOR 4 WK BEGINNING 1 WK PRIOR TO FIRST CARCINOGEN (STUDY DURATION: 40 WK), Route [Inhibitor]: SUBCUTANEOUSLY IMPLANTED OSMOTIC PUMP, Species: HAMSTER, Strain/Sex: SYRIAN/FEMALE, Target Tissue: Type of Lesion: PANCREAS: ADENOCARCINOMA, Dose [Carcinogen]: 10 MG/KG BW ONCE/WK FOR 3 WK (STUDY DURATION: 40 WK), Promoter: NONE) | tumour outcome (control, treated, inhibition, significance) (Carcinogen: N-NITROSOBIS(2-OXOPROPYL)AMINE [60599-38-4], 6 UG/KG/D FOR 4 WK BEGINNING 1 WK PRIOR TO FIRST CARCINOGEN (STUDY DURATION: 40 WK), Route [Inhibitor]: SUBCUTANEOUSLY IMPLANTED OSMOTIC PUMP, Species: HAMSTER, Strain/Sex: SYRIAN/FEMALE, Target Tissue: Type of Lesion: PANCREAS: ADENOCARCINOMA, Dose [Carcinogen]: 10 MG/KG BW ONCE/WK FOR 3 WK (STUDY DURATION: 40 WK), Promoter: NONE) | tumour outcome (control, treated, inhibition, significance) (Carcinogen: 7,12-DIMETHYLBENZ[A]ANTHRACENE, 57-97-6, 0.086 UMOL 2/WK BEGINNING 1 WK POST CARCINOGEN DOSE AND CONTINUING FOR DURATION OF STUDY (STUDY DURATION: 15 WK), Route [Inhibitor]: DERMAL, Species: MOUSE, Strain/Sex: SENCAR/FEMALE, Target Tissue: Type of Lesion: SKIN: PAPILLOMA, Dose [Carcinogen]: 10 NMOL ONCE, Promoter: 12-O-TETRADECANOYLPHORBOL-13-ACETATE, 16561-29-8) | tumour outcome (control, treated, inhibition, significance) (Carcinogen: 7,12-DIMETHYLBENZ[A]ANTHRACENE, 57-97-6, 0.342 UMOL 2/WK BEGINNING 1 WK POST CARCINOGEN DOSE AND CONTINUING FOR DURATION OF STUDY (STUDY DURATION: 15 WK), Route [Inhibitor]: DERMAL, Species: MOUSE, Strain/Sex: SENCAR/FEMALE, Target Tissue: Type of Lesion: SKIN: PAPILLOMA, Dose [Carcinogen]: 10 NMOL ONCE, Promoter: 12-O-TETRADECANOYLPHORBOL-13-ACETATE, 16561-29-8) | tumour outcome (control, treated, inhibition, significance) (Carcinogen: 7,12-DIMETHYLBENZ[A]ANTHRACENE, 57-97-6, 0.856 UMOL 2/WK BEGINNING 1 WK POST CARCINOGEN DOSE AND CONTINUING FOR DURATION OF STUDY (STUDY DURATION: 15 WK), Route [Inhibitor]: DERMAL, Species: MOUSE, Strain/Sex: SENCAR/FEMALE, Target Tissue: Type of Lesion: SKIN: PAPILLOMA, Dose [Carcinogen]: 10 NMOL ONCE, Promoter: 12-O-TETRADECANOYLPHORBOL-13-ACETATE, 16561-29-8) | tumour outcome (control, treated, inhibition, significance) (Carcinogen: 7,12-DIMETHYLBENZ[A]ANTHRACENE, 57-97-6, 10 MG A WK IN DRINKING WATER BEGINNING 1 WK POST CARCINOGEN DOSE AND CONTINUING FOR DURATION OF STUDY (STUDY DURATION, Route [Inhibitor]: ORAL, Species: MOUSE, Strain/Sex: SENCAR/MALE, Target Tissue: Type of Lesion: SKIN: PAPILLOMA, Dose [Carcinogen]: 100 NMOL IN 200 µL ACETONE ONCE, Promoter: 12-O-TETRADECANOYLPHORBOL-13-ACETATE, 16561-29-8) |
| --- | --- | --- | --- | --- | --- | --- |
| C[C@@H](O)[C@@H]1NC(=O)[C@H](CCCCN)NC(=O)[C@@H](Cc2c[nH]c3ccccc23)NC(=O)[C@H](Cc2ccccc2)NC(=O)[C@@H](NC(=O)[C@H](N)Cc2ccccc2)CSSC[C@@H](C(=O)N[C@H](CO)[C@@H](C)O)NC1=O | 8/18 (44%), 11/20 (55%), -25%, not significant | 8/18 (44%), 9/20 (45%), -2%, not significant | – | – | – | – |
| CN(C)CCOC(c1ccccc1)c1ccccc1 | – | – | 97%, 75%, 23%, not calculated | 97%, 80%, 18%, not calculated | 97%, 75%, 23%, not calculated | 95%, 98%, -3%, not calculated |
